Data from patent EP0286926A2, “Semi-synthetic rhodomycins, method for their preparation and their use as cytostatics” (BEHRINGWERKE Aktiengesellschaft, priority 1987, dated 1988).
In brackets after ≈: the same amount, converted by molar mass. Like-named read-outs stand apart in the source and are kept apart here.

System: L1210 Leukämiezellen
Assay: Colony formation of L1210 leukemia cells in soft agar
Type: cell-based, Maus
Settings: for IC50: Mus musculus
Description: Die zytostatische Wirksamkeit der erfindungsgemäßen Verbindungen wurde anhand von L1210 Leukämiezellen der Maus getestet. Hierzu wurde die Koloniebildung von L1210 Leukämiezellen in Agarplatten herangezogen. Diese Methode dient zum Nachweis des Einflusses der Testsubstanzen auf das Wachstumsverhalten der Zellen nach Inkubation von 1 Stunde oder über mehrere Generationen. Bei einer Zelzykluszeit von 10-12 Stunden werden dabei in der Testzeit von 7 Tagen etwa 14 aufeinanderfolgende Generationen beobachtet. Die erfindungsgemäßen zytostatisch wirksamen Substanzen bewirken in diesem Test eine Reduktion der zu beobachtenden Koloniezahl gegenüber einer unbehandelten Kontrollprobe.
Einzelheiten des Testverfahrens ergeben sich aus der nachfolgenden Verfahrensweise zur Ermittlung der Koloniebildung.
Verfahrensweise zur Ermittlung der Koloniebildung von L1210 Leukämiezellen in Soft-Agar
500 Leukämiezellen pro Platte wurden mit unterschiedlichen Konzentrationen der Testsubstanz 1 Stunde bei 37°C inkubiert. Anschließend wurden die Zellen zweimal mit McCoy5A-Medium gewaschen und schließlich in Petrischalen nach Zugabe von 0,3 % Agar ausgegossen. Kontrollen wurden lediglich mit frischem Medium inkubiert. Anstelle der einstündigen Inkubation wurden in manchen Fällen unterschiedliche Konzentrationen und Testsubstanzen der oberen Agarschicht zugemischt, um so eine kontinuierliche Exposition der Zellen über die gesamte Inkubationszeit zu erreichen. Nach Erstarren des Agars wurden die Platten im Brutschrank 7 Tage bei 37°C inkubiert (5 Vol.-% CO₂, 94 % relative Luftfeuchtigkeit). Anschließend wurde die Zahl der entstandenen Kolonien mit einem Durchmesser von mehr als 60 µm gezählt. Die Ergebnisse wurden angegeben als Koloniezahl in behandelten Agarplatten in Prozent der unbehandelten Kontrolle. Aus der so erhaltenen Dosiswirkungskruve wurde die IC₅₀ als Maß für die Wirksamkeit der Substanz ermittelt. Die Ergebnisse für die hier beschriebenen Verbindungen im Vergleich zu Adriamycin sind in der nachfolgenden Tabelle 1 zusammengefaßt.

[1] = L1210, 168 h, read-out: Dauerinkubation IC50
[2] = L1210, read-out: 1h-Inkubation IC50
[3] = 1 h incubation with substance at 37°C, cells washed twice, then plated in 0,3 % agar for 7 days, colonies > 60 µm counted
[4] = continuous exposure: substance mixed into upper agar layer for the whole 7-day incubation at 37°C, colonies > 60 µm counted, percent of untreated control
[5] = L1210, 168 h, continuous exposure: substance mixed into upper agar layer for the whole 7-day incubation at 37°C, colonies > 60 µm counted, percent of untreated control, read-out: Dauerinkubation IC50
[6] = L1210, 1 h incubation with substance at 37°C, cells washed twice, then plated in 0,3 % agar for 7 days, colonies > 60 µm counted, read-out: 1h-Inkubation IC50

| Compound | IC50 [5] [µg/mL] | IC50 [6] [µg/mL] | also measured |
| --- | --- | --- | --- |
| CC[C@@]1(O)C[C@H](O[C@H]2C[C@H](NC(=O)C(F)(F)F)[C@@H](OC(=O)c3ccc([N+](=O)[O-])cc3)[C@H](C)O2)c2c(O)c3c(c(O)c2[C@H]1O[C@H]1C[C@H](NC(=O)C(F)(F)F)[C@H](OC(=O)c2ccc([N+](=O)[O-])cc2)[C@H](C)O1)C(=O)c1cccc(O)c1C3=O [Beispiel 35, 7-0-(4-0-Paranitrobenzoyl-3-N-trifluoracetyl-α-L-acosaminyl)-10-0-(4-0-paranitrobenzoyl-3-N-trifluoracetyl-α-L-daunosaminyl)-β-rhodomycinon] | – | – | IC50 [1]: > 1 µg/mL; IC50 [2]: > 1 µg/mL |
| COc1cccc2c1C(=O)c1c(O)c3c(c(O)c1C2=O)C[C@@](O)(C(=O)CO)C[C@@H]3O[C@H]1C[C@H](N)[C@H](O)[C@H](C)O1 [Adriamycin, reference compound] | – | – | IC50 [1]: 0.02 µg/mL (≈ 0.0368 µM); IC50 [2]: 0.04 µg/mL (≈ 0.0736 µM) |
| CC[C@@]1(O)C[C@H](O[C@@H]2O[C@@H](C)[C@H](OC(C)=O)[C@@H](OC(C)=O)[C@H]2I)c2c(O)c3c(c(O)c2[C@H]1OC1CCCCO1)C(=O)c1cccc(O)c1C3=O (stereo partly drawn) [Beispiel 25, 7-O-(3,4-Di-O-acetyl-2,6-didesoxy-2-iodo-α-L-mannopyranosyl)-10-O-tetrahydropyranyl-β-rhodomycinon] | – | – | 1h-Inkubation IC50 [3]: >1 µg/mL; Dauerinkubation IC50 [4]: >1 µg/mL |
| CC[C@@]1(O)C[C@H](O[C@H]2C[C@H](NC(=O)C(F)(F)F)[C@@H](OC(=O)c3ccc([N+](=O)[O-])cc3)[C@H](C)O2)c2c(O)c3c(c(O)c2[C@H]1OC(=O)C(F)(F)F)C(=O)c1cccc(O)c1C3=O [Beispiel 13, 7-0-(4-0-Paranitrobenzoyl-3-N-trifluoracetyl-α-L-acosaminyl)-10-0-trifluoracetyl-β-rhodomycinon] | 0.03 (≈ 0.035 µM) | > 1 | – |
| CC[C@@]1(O)C[C@H](O[C@H]2C[C@H](N)[C@H](O)[C@H](C)O2)c2c(O)c3c(c(O)c2[C@H]1O[C@H]1C=C[C@@H](O)[C@H](C)O1)C(=O)c1cccc(O)c1C3=O [Beispiel 42, 10-0-(2,3,6-Tridesoxy-α-L-erythro-hex-2-enopyranosyl)-7-0-α-L-daunosaminyl-β-rhodomycinon] | – | – | IC50 [1]: 0.16 µg/mL (≈ 0.255 µM); IC50 [2]: > 1 µg/mL |
| CC[C@@]1(O)C[C@H](O[C@H]2C[C@H](N(C)C)[C@H](O)[C@H](C)O2)c2c(O)c3c(c(O)c2[C@H]1O[C@H]1C[C@H](N)[C@@H](O)[C@H](C)O1)C(=O)c1cccc(O)c1C3=O [Beispiel 40, 10-0-α-L-Acosaminyl-7-0-α-L-rhodosaminyl-β-rhodomycinon] | 0.85 (≈ 1.26 µM) | > 1 | – |
| CC[C@@]1(O)C[C@H](O[C@H]2C[C@H](N)[C@H](O)[C@H](C)O2)c2c(O)c3c(c(O)c2[C@H]1O[C@H]1C[C@H](N)[C@H](O)[C@H](C)O1)C(=O)c1cccc(O)c1C3=O [Beispiel 29, 7,10-Di-O-α-L-daunosaminyl-β-rhodomycinon] | > 10 | > 1 | – |
| CC[C@@]1(O)C[C@H](O[C@H]2C[C@H](N)[C@H](O)[C@H](C)O2)c2c(O)c3c(c(O)c2[C@H]1OC1CCCCO1)C(=O)c1cccc(O)c1C3=O (stereo partly drawn) [Beispiel 21, 7-O-α-L-Daunosaminyl-10-O-tetrahydropyranyl-β-rhodomycinon] | – | – | 1h-Inkubation IC50 [3]: >1 µg/mL; Dauerinkubation IC50 [4]: 0.5 µg/mL |
| CC[C@@]1(O)C[C@H](O[C@H]2C[C@H](N)C[C@H](C)O2)c2c(O)c3c(c(O)c2[C@H]1O)C(=O)c1cccc(O)c1C3=O [Beispiel 53, 7-O-(4-Desoxy-α-L-daunosaminyl)-β-rhodomycinon] | 0.04 (≈ 0.0801 µM) | 0.05 (≈ 0.1 µM) | – |
| CC[C@@]1(O)C[C@H](O[C@H]2C[C@H](N)[C@@H](O)[C@H](C)O2)c2c(O)c3c(c(O)c2[C@H]1O[C@H]1C[C@H](N)[C@H](O)[C@H](C)O1)C(=O)c1cccc(O)c1C3=O [Beispiel 37, 7-O-α-L-Acosaminyl-10-0-α-L-daunosaminyl-β-rhodomycinon] | > 1 | > 1 | – |
| CC[C@@]1(O)C[C@H](O[C@@H]2O[C@@H](C)[C@H](O)[C@@H](O)[C@H]2I)c2c(O)c3c(c(O)c2[C@H]1O)C(=O)c1cccc(O)c1C3=O [Beispiel 50, 7-O-(2,6-Didesoxy-2-iodo-α-L-mannopyranosyl)-β-rhodomycinon] | 0.1 (≈ 0.156 µM) | – | – |
| CC[C@@]1(O)C[C@H](O[C@H]2C[C@H](N(C)C)[C@@H](O)[C@H](C)O2)c2c(O)c3c(c(O)c2[C@H]1O[C@H]1C[C@H](N(C)C)[C@@H](O)[C@H](C)O1)C(=O)c1cccc(O)c1C3=O [Beispiel 34] | – | – | IC50 [1]: 0.026 µg/mL (≈ 0.0371 µM); IC50 [2]: 0.09 µg/mL (≈ 0.128 µM) |
| CC[C@@]1(O)C[C@H](O[C@H]2C[C@H](NC(=O)C(F)(F)F)[C@@H](OCc3ccccc3)[C@H](C)O2)c2c(O)c3c(c(O)c2[C@H]1O)C(=O)c1cccc(O)c1C3=O [Beispiel 49, 7-O-(4-O-Benzyl-3-N-trifluoracetyl-α-L-acosaminyl)-β-rhodomycinon] | – | – | IC50 [2]: > 1 µg/mL |
| CC[C@@]1(O)C[C@H](O)c2c(O)c3c(c(O)c2[C@H]1O[C@H]1C[C@H](NC(=O)C(F)(F)F)[C@@H](OC(=O)c2ccc([N+](=O)[O-])cc2)[C@H](C)O1)C(=O)c1cccc(O)c1C3=O [Beispiel 8, 10-0-(4-0-Paranitrobenzoyl-3-N-trifluor-acetyl-α-L-acosaminyl)-β-rhodomycinon] | > 1 | > 1 | – |
| CC[C@@]1(O)C[C@H](O[C@H]2C[C@H](N)[C@@H](OCc3ccccc3)[C@H](C)O2)c2c(O)c3c(c(O)c2[C@H]1O)C(=O)c1cccc(O)c1C3=O [Beispiel 48, 7-O-(4-O-Benzyl-α-L-acosaminyl)-β-rhodomycinon] | – | 0.095 (≈ 0.157 µM) | – |
| CC[C@@]1(O)C[C@H](O[C@H]2C[C@H](N)[C@@H](O)[C@H](C)O2)c2c(O)c3c(c(O)c2[C@H]1O[C@H]1C[C@H](N)[C@@H](O)[C@H](C)O1)C(=O)c1cccc(O)c1C3=O [Beispiel 33, 7,10-Di-O-α-L-acosaminyl-β-rhodomycinon] | > 1 | > 1 | – |
| CC[C@@]1(O[C@H]2C[C@H](N)[C@@H](O)[C@H](C)O2)C[C@H](O[C@H]2C[C@H](N)[C@@H](O)[C@H](C)O2)c2c(O)c3c(c(O)c2[C@H]1O[C@H]1C[C@H](N)[C@@H](O)[C@H](C)O1)C(=O)c1cccc(O)c1C3=O [Beispiel 44, 7,9,10-Tri-O-α-L-acosaminyl-β-rhodomycinon] | – | – | IC50 [2]: > 1 µg/mL |
| CC[C@@]1(O)C[C@H](O[C@H]2C[C@H](NC(=O)C(F)(F)F)[C@H](OC(C)=O)[C@H](C)O2)c2c(O)c3c(c(O)c2[C@H]1O[C@H]1C[C@H](NC(=O)C(F)(F)F)[C@H](OC(C)=O)[C@H](C)O1)C(=O)c1cccc(O)c1C3=O [Beispiel 28, 7,10-Di-O-(4-O-acetyl-3-N-trifluoracetyl-α-L-daunosaminyl)-β-rhodomycinon] | > 1 | > 1 | – |
| CC[C@@]1(O)C[C@H](O[C@H]2C[C@H](NC(=O)C(F)(F)F)[C@@H](O)[C@H](C)O2)c2c(O)c3c(c(O)c2[C@H]1O)C(=O)c1cccc(O)c1C3=O [Beispiel 45, 7-O-(3-N-Trifluoracetyl-α-L-acosaminyl)-ß-rhodomycinon] | – | 0.29 (≈ 0.474 µM) | – |
| CC[C@@]1(O)C[C@H](O)c2c(O)c3c(c(O)c2[C@H]1O[C@H]1C[C@H](N)[C@H](O)[C@H](C)O1)C(=O)c1cccc(O)c1C3=O [Beispiel 11, 10-0-α-L-Daunosaminyl-β-rhodomycinon] | > 1 | > 1 | – |
| CC[C@@]1(O)C[C@H](O[C@H]2C[C@H](N)[C@@H](OCc3ccccc3)[C@H](C)O2)c2c(O)c3c(c(O)c2[C@H]1O[C@H]1C[C@H](N)[C@@H](OCc2ccccc2)[C@H](C)O1)C(=O)c1cccc(O)c1C3=O [Beispiel 51, 7,10-Di-O-(4-O-Benzyl-α-L-acosaminyl)-β-rhodomycinon] | 0.4 (≈ 0.485 µM) | 0.68 (≈ 0.824 µM) | – |
| CC[C@@]1(O)C[C@H](O[C@H]2C[C@H](N(C)C)[C@H](OC(=O)c3ccccc3)[C@H](C)O2)c2c(O)c3c(c(O)c2[C@H]1O[C@H]1C[C@H](NC(=O)C(F)(F)F)[C@@H](OC(=O)c2ccc([N+](=O)[O-])cc2)[C@H](C)O1)C(=O)c1cccc(O)c1C3=O [Beispiel 38, 7-0-(4-0-Benzoyl-α-L-rhodosaminyl)-10-0-(4-0-paranitrobenzoyl-3-N-trifluoracetyl-α-L-acosaminyl)-β-rhodomycinon] | > 1 | > 1 | – |
| CC[C@@]1(O)C[C@H](O[C@H]2C[C@H](N)[C@@H](O)[C@H](C)O2)c2c(O)c3c(c(O)c2[C@H]1O)C(=O)c1cccc(O)c1C3=O [Beispiel 15, 7-0-α-L-Acosaminyl-β-rhodomycinon] | 0.004 (≈ 0.00776 µM) | 0.02 (≈ 0.0388 µM) | zytostatische Wirksamkeit (statement in words, compared with Adriamycin): vergleichbar |
